# Values quoted from earlier work as cited in patent publication US6416793B1, “Formulations and use of controlled-release indole alkaloids” (BioResponse, L.L.C., priority 2000, dated 2002).
# Counter-ions that a name gives are not always drawn.
# How the values were obtained:
# overweight men = details: 16.2 to 43.2 mg/day, six month period
# [1] = tableted preparations of pure yohimbine
# [2] = test system: overweight female subjects; details: three weeks
# dogs = details: 0.4 mg/kg/day
# [3] = test system: obese and non-obese women; details: in vivo
molecule,measurement,setting,value
"O=C(O[C@@H]1Cc2c(O)cc(O)cc2O[C@@H]1c1cc(O)c(O)c(O)c1)c1cc(O)c(O)c(O)c1 [epigallocatechin gallate (EGCG), epigallocatechin gallate]",resting energy expenditure,humans,increase resting energy expenditure in humans
same,rate of weight loss,diet-restricted animals,increase the rate of weight loss in diet-restricted animals
"COC(=O)[C@@H]1[C@H]2C[C@H]3c4[nH]c5ccccc5c4CCN3C[C@@H]2CC[C@@H]1O [yohimbine Hcl, (16 alpha, 17 alpha)-17-hydroxyyohimban-16-carboxylic acidmethyl ester hydrochloride]",additional weight loss versus placebo,overweight men,failed to show advantage in additional weight loss over placebo
COC(=O)[C@@H]1[C@H]2C[C@H]3c4[nH]c5ccccc5c4CCN3C[C@@H]2CC[C@@H]1O [yohimbine],plasma half life,[1],less than 1 hour
yohimbine,continued weight loss versus placebo,"[2]; 5 mg 4 times per day (20 mg/day), weight loss diet",Significantly greater continued weight loss
same,energy expenditure during exercise,[2]; 20 mg/day,greater energy expenditure in the treated group during exercise
same,body weight,dogs,rapid loss of body weight
same,daily food intake,dogs; rapidly absorbed pure yohimbine,dramatic reduction in daily food intake
same,circulating levels of norepinephrine,[3],increase circulating levels of norepinephrine
